Our source for the pest or weed control and melting point values is patent publication US9113629B2, “4-amino-6-(4-substituted-phenyl)-picolinates and 6-amino-2-(4-substituted-phenyl)-pyrimidine-4-carboxylates and their use as herbicides” (DOW AGROSCIENCES LLC, priority 2013, dated 2015).

Where two headings read alike, the source gives them in different places.

In general, melting point refers to the temperature of the solid-liquid transition.

Series [1] deals with Key Broadleaf Weed and Crop Species. Description: Post-emergent Test II herbicidal activity (Table 5). As to conditions: post-emergence, 336 h, 140 g ai/ha, post-emergent, 14 days after application. It is filed as in vivo. Summed up: (§1)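 Spray rates: a highest rate plus ½×, ¼×, ⅛×, 1/16×, all delivered at 187 L/ha to plants at the first–second true leaf stage. Readout is a visual percent injury score at 14 d, where 100 means complete kill.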

The subject of series [2] is Key Grass and Sedge Weeds as well as Grass Crops. The experiment in a line: Post-emergent Test II herbicidal activity (Table 6). To be noted: post-emergence, 336 h, application rate 140 g ai/ha. It counts as in vivo. Summed up:
as §1

Setting [3] is: ABUTH: velvetleaf (Abutilon theophrasti), read-out: Visual Growth Reduction (%) 14 Days After Application ABUTH.
Setting [4] is: AMARE: redroot pigweed (Amaranthus retroflexus), read-out: Visual Growth Reduction (%) 14 Days After Application AMARE.
Setting [5] is: BRSNN: oilseed-rape, canola (Brassica napus), read-out: Visual Growth Reduction (%) 14 Days After Application BRSNN.
Where [6] appears, read: CHEAL: lambsquarters (Chenopodium album), read-out: Visual Growth Reduction (%) 14 Days After Application CHEAL.
[7] abbreviates: EPHHL: wild poinsettia (Euphorbia heterophylla), read-out: Visual Growth Reduction (%) 14 Days After Application EPHHL.
Setting [8] is: HELAN: sunflower (Helianthus annuus), read-out: Visual Growth Reduction (%) 14 Days After Application HELAN.
Setting [9] is: VIOTR: wild pansy (Viola tricolor), read-out: Visual Growth Reduction (%) 14 Days After Application VIOTR.
The mark [10] stands for this setting: Triticum aestivum, TRZSS (wheat), read-out: Visual Growth Reduction (%) 14 Days After Application, TRZSS.
Where [11] appears, read: CYPES: yellow nutsedge (Cyperus esculentus), read-out: Visual Growth Reduction (%) 14 Days After Application, CYPES.
Where [12] appears, read: DIGSA: crabgrass (Digitaria sanguinalis), read-out: Visual Growth Reduction (%) 14 Days After Application, DIGSA.
Setting [13] is: ECHCG: barnyardgrass (Echinochloa crus-galli), read-out: Visual Growth Reduction (%) 14 Days After Application, ECHCG.
Setting [14] is: ORYSA: rice (Oryza sativa), read-out: Visual Growth Reduction (%) 14 Days After Application, ORYSA.
[15] abbreviates: SETFA: giant foxtail (Setaria faberi), read-out: Visual Growth Reduction (%) 14 Days After Application, SETFA.
The mark [16] stands for this setting: SORVU: grain sorghum (Sorghum vulgare), read-out: Visual Growth Reduction (%) 14 Days After Application, SORVU.
[17] abbreviates: ZEAMX: maize, corn (Zea mays), read-out: Visual Growth Reduction (%) 14 Days After Application, ZEAMX.

`C#Cc1ccc(-c2nc(C(=O)O)c(Cl)c(N)c2Cl)cc1` [Compound 153] returned a melting point of 160.9 to 162.6 °C. In series [1] (setting [3]), the pest or weed control at 140 g/ha fell in the range of 95 to 100%. Further, in series [1] (setting [4]), the pest or weed control at 140 g/ha is 95 to 100%. Further, the pest or weed control at 140 g/ha in series [1] (setting [5]) is 95 to 100%. In series [1] (setting [6]), the pest or weed control at 140 g/ha lay in the range of 95 to 100%. The pest or weed control at 140 g/ha in series [1] (setting [7]) fell in the range of 0 to 29%. Moreover, the pest or weed control at 140 g/ha in series [1] (setting [8]) was 95 to 100%. Moreover, the pest or weed control at 140 g/ha in series [1] (setting [9]) lay in the range of 0 to 29%. For the same compound, the pest or weed control at 140 g/ha in series [2] (setting [10]) lay within 60 to 74%. For the same compound, the pest or weed control at 140 g/ha in series [2] (setting [11]) was 45 to 59%. In series [2] (setting [12]), the pest or weed control at 140 g/ha was in the range of 45 to 59%. For the same compound, the pest or weed control at 140 g/ha in series [2] (setting [13]) lay in the range of 0 to 29%. The pest or weed control at 140 g/ha in series [2] (setting [14]) is 0 to 29%. The pest or weed control at 140 g/ha in series [2] (setting [15]) was 75 to 84%. Besides, the pest or weed control at 140 g/ha in series [2] (setting [16]) was in the range of 0 to 29%. The pest or weed control at 140 g/ha in series [2] (setting [17]) lay within 60 to 74%.

As to `C#Cc1ccc(-c2nc(N)c(OC)c(C(=O)OC)n2)cc1` [Compound 166], the melting point was in the range of 148.2 to 150.9 °C. The pest or weed control at 140 g/ha in series [1] (setting [3]) was 0 to 29%. In series [1] (setting [4]), the pest or weed control at 140 g/ha was in the range of 95 to 100%. For the same compound, the pest or weed control at 140 g/ha in series [1] (setting [5]) lay within 0 to 29%. Besides, the pest or weed control at 140 g/ha in series [1] (setting [6]) was 60 to 74%. For the same compound, the pest or weed control at 140 g/ha in series [1] (setting [7]) was in the range of 95 to 100%. Moreover, in series [1] (setting [8]), the pest or weed control at 140 g/ha lay in the range of 85 to 94%. Moreover, the pest or weed control at 140 g/ha in series [1] (setting [9]) was in the range of 0 to 29%. Also, the pest or weed control at 140 g/ha in series [2] (setting [10]) was in the range of 0 to 29%. Further, the pest or weed control at 140 g/ha in series [2] (setting [11]) lay in the range of 45 to 59%. Further, in series [2] (setting [12]), the pest or weed control at 140 g/ha lay within 0 to 29%. In addition, the pest or weed control at 140 g/ha in series [2] (setting [13]) lay in the range of 0 to 29%. Further, the pest or weed control at 140 g/ha in series [2] (setting [14]) is 0 to 29%. Besides, in series [2] (setting [15]), the pest or weed control at 140 g/ha was in the range of 0 to 29%. In addition, the pest or weed control at 140 g/ha in series [2] (setting [16]) is 0 to 29%. Further, the pest or weed control at 140 g/ha in series [2] (setting [17]) was in the range of 45 to 59%.

`COC(=O)c1nc(-c2ccc(OC(F)(F)F)cc2)c(Cl)c(N)c1Cl` [Compound 170]: the melting point is 178.9 to 180.2 °C. Further, the pest or weed control at 140 g/ha in series [1] (setting [3]) lay in the range of 0 to 29%. Also, the pest or weed control at 140 g/ha in series [1] (setting [4]) lay within 0 to 29%. For the same compound, the pest or weed control at 140 g/ha in series [1] (setting [5]) was 0 to 29%. For the same compound, the pest or weed control at 140 g/ha in series [1] (setting [6]) was in the range of 60 to 74%. The pest or weed control at 140 g/ha in series [1] (setting [7]) lay in the range of 0 to 29%. For the same compound, the pest or weed control at 140 g/ha in series [1] (setting [8]) was in the range of 85 to 94%. In addition, in series [1] (setting [9]), the pest or weed control at 140 g/ha lay in the range of 0 to 29%. Also, the pest or weed control at 140 g/ha in series [2] (setting [10]) was in the range of 0 to 29%. Besides, the pest or weed control at 140 g/ha in series [2] (setting [11]) fell in the range of 0 to 29%. Further, the pest or weed control at 140 g/ha in series [2] (setting [12]) fell in the range of 0 to 29%. For the same compound, the pest or weed control at 140 g/ha in series [2] (setting [13]) was in the range of 0 to 29%. Further, the pest or weed control at 140 g/ha in series [2] (setting [14]) is 0 to 29%. Besides, the pest or weed control at 140 g/ha in series [2] (setting [15]) fell in the range of 0 to 29%. Also, the pest or weed control at 140 g/ha in series [2] (setting [16]) lay in the range of 0 to 29%. In addition, the pest or weed control at 140 g/ha in series [2] (setting [17]) was in the range of 0 to 29%.
